Tests used:
[1] = biological target: EGFR in BAF3-LTC (Baf3-L858R-T780M-C797S) (Homo sapiens, UniProt P00533, C797S/L858R/T790M); test: EGFR PROTAC HTRF experiment (total EGFR degradation); type: cell-based; conditions: BAF3-LTC cells, 16 hours incubation
[2] = biological target: EGFR in BAF3-DTC (Baf3-19del-T780M-C797S) (Homo sapiens, UniProt P00533, C797S/DEL746-750/T790M); test: as above; type: cell-based; conditions: BAF3-DTC cells, 16 hours incubation
[3] = Pharmacokinetic test on male SD rats; type: in vivo; conditions: gavage (p.o.), 10 mg/kg, plasma; for AUC(0-inf) / AUC(0-t) / Cmax / MRT last / Tmax: rat, po
Procedure: Healthy adult SD rats, male, a total of 3, 6-8 weeks old; Weighing 200-300 grams.
EDTA-Na2 anticoagulant: 11.2 g of EDTA-Na2 was weighted and placed into a reagent bottle. 100 mL of physiological saline was added and the mixture was shaken until completely dissolved. After preparation, the solution was aliquoted into 1.5 mL centrifuge tubes, each containing approximately 20 uL, for use in whole blood sample collection.
Approximately 10 mg of the test sample was accurately weighed. DMSO accounting for 10% of the total volume was added to dissolve the sample. Subsequently, 0.5% MC solvent accounting for 90% of the total volume was slowly added while stirring. The mixture was sonicated and vortexed evenly, and a visually homogeneous preparation solution was obtained, with a concentration of 1 mg/mL. This solution should be freshly prepared immediately before use.
0.2 mL of the sample was pipetted into a 1.5 mL centrifuge tube and stored at -80°C for concentration analysis of the dosing solution.
Animals were kept in rat cages and fasted for no less than 10 hours on the day before the experiment, but were allowed to drink water. The animals were individually weighed and marked on their tails. Prior to dosing, blank blood samples were collected from each animal via the tail vein.
• Administration route: gavage (p.o.) • Dosage concentration: 1mg/ml • Dosage: 10 mg/kg • Dosage volume: 10 mL/kg
Operation process: The rat was grasped with a left hand protected by a bite-resistant glove and held in an upright position. The gavage needle was inserted through the mouth and advanced towards the pharynx. The needle was advanced gently, ensuring no significant resistance was felt. The drug was then injected into the stomach.
At 0.5 h, 1 h, 2 h, 4 h, 6 h, 8 h, 12 h, and 24 h post-dosing, 0.1-0.2 mL of whole blood was collected from each test animal into EDTA-Na2 anticoagulant tubes. The tubes were mixed by inverting 3-4 times. The samples were centrifuged at 2000 × g and 4 °C for 5 minutes. The upper plasma layer was to separated, promptly transferred to -80 °C for storage until analysis. The blood was collected via tail vein.
A quantitative detection method for the test compound was established using a Shimadzu liquid chromatography system and a Triple Quad™ 6500+ AB mass spectrometry (MS) system. This method was used to analyze the concentration of the parent drug in plasma. The variation of the analysis results was controlled using quality control (QC) samples, and the accuracy of the QC samples was required to be within the range of 80%-120%.
The main pharmacokinetic parameters were calculated using the non-compartmental model (NCA) with the WinNonlin Phoenix software. These parameters include: area under the concentration-time curve (AUC(0-t) and AUC(0-∞)), elimination half-life (T1/2), maximum plasma concentration (Cmax), and time to reach maximum plasma concentration (Tmax), etc.

H1975 = test: Cell antiproliferative assay (CTG, 72 h); type: cell-based; conditions: Homo sapiens, NCI-H1975, H1975 (EGFR T790M/L858R)
Procedure: (§1) H1975 has EGFR T790M/L858R dual mutation, PC-9 has EGFR exon 19 deletion mutation, and HCC827 has exon 19 deletion mutation. CellCounting Lite 2.0, Trypsin EDTA, 37 °C CO2 incubator, cell counter, EnVision Serial No.1050454.
(§2) • (A) Trypsin EDTA was used to digest log-phase cells, medium was added to terminate the digestion reaction, and a cell suspension was prepared by blowing and mixing with a pipette. • (B) Cell concentration was determined using Vi-cell, and a suspension of 15,000-25,000 cells per milliliter was made depending on the purpose of the experiment and the characteristics of the cells. • (C) After the cell suspension was ready, it was gently mixed and each well was added with 100µL so that the cell density to be tested was 1,500- 2,500 per well.
(§3) • A) About 2 mg of compound was weighed, and the volume of DMSO required was calculated according to the formula: compound mass (mg)*compound purity (%)/compound molecular weight*1000. • (B) The inoculated cell culture plates were incubated in an incubator. About 24 hours later, compounds were added at gradient concentrations. • (C) 10mM of compound reservoir solution was diluted to […] with medium, and […] of the compound solution was added sequentially to the second column of the deep-well plate, and […] of medium containing 0.5% DMSO was added to the third to eleventh columns. • D) Gradient dilution: 125 µl of solution was pipetted from the second column and added to the third column, after mixing; another 125 µl of solution was pipetted from the third column and added to the fourth column, and the operation was repeated until the tenth column. • (E) 25 µl of compound was pipetted from the deep-well plate into a 96-well culture plate using a multichannel pipette, and each compound was run in triplicate on the 96-well plate. A 1:4 concentration gradient was established on the 96-well plate, with a final highest concentration of 10,000 nM.
(§4) • (A) 96-well plates were incubated in an incubator for 72 h. The effect of the compounds was observed under an inverted microscope. • (B) 25 µl of CTG solution was added to each well. The plate was incubated on a shaker for 10 minutes and the OD value of each well was read.
(§5) The survival rate ( % Cell Viability) was calculated using the following formula: %Cell Viability = 100% × (Lum_Sample−Lum_LC)/(Lum_HC−Lum_LC) [formula] • Lum_HC: Cell reading of 0.1% DMSO control group • Lum_Sample: Cell readings of compound addition group • Lum_LC: Reading of blank medium • IC50 values were obtained by curve fitting using GraphPad Prism 8 software.

HCC827 = test: Cell antiproliferative assay (CTG, 72 h); type: cell-based; conditions: Homo sapiens, HCC827 (exon 19 deletion)
Procedure: as §1, §2, §3, §4, §5

PC-9 = test: Cell antiproliferative assay (CTG, 72 h); type: cell-based; conditions: Homo sapiens, PC-9 (EGFR exon 19 deletion)
Procedure: as §1, §2, §3, §4, §5

Sequence of EGFR in BAF3-LTC (Baf3-L858R-T780M-C797S) (P00533 25-1210 T790M/C797S/L858R): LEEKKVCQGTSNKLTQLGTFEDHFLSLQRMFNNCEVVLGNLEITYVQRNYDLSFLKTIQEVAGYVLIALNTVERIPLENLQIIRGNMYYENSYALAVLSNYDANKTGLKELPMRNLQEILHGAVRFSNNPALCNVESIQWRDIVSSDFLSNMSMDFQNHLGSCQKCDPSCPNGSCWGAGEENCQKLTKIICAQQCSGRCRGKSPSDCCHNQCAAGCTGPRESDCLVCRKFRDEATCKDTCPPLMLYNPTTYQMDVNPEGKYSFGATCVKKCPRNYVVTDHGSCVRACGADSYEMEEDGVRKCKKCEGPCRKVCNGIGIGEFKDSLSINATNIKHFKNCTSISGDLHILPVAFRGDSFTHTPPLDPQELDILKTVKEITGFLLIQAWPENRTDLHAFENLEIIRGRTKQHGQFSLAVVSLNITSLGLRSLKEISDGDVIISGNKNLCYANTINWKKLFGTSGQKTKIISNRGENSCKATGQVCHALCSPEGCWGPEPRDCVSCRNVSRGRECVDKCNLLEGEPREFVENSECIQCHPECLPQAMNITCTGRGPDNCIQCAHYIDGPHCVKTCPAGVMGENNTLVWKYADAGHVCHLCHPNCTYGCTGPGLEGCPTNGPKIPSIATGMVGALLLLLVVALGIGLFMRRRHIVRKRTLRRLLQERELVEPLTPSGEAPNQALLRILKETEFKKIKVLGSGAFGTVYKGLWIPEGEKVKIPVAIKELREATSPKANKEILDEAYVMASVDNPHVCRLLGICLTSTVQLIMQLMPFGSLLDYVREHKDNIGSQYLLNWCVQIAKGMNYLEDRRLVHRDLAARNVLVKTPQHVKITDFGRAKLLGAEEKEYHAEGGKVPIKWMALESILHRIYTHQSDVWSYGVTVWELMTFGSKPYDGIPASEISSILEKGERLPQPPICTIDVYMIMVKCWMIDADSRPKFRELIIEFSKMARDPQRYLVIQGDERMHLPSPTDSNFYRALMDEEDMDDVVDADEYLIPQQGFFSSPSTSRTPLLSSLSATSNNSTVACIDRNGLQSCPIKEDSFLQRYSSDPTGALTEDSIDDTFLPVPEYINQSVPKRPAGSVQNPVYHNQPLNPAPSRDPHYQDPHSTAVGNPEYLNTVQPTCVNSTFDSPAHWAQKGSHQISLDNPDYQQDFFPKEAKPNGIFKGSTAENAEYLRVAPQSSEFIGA
Sequence of EGFR in BAF3-DTC (Baf3-19del-T780M-C797S) (P00533 with tags, fused parts or gaps DEL746-750/T790M/C797S): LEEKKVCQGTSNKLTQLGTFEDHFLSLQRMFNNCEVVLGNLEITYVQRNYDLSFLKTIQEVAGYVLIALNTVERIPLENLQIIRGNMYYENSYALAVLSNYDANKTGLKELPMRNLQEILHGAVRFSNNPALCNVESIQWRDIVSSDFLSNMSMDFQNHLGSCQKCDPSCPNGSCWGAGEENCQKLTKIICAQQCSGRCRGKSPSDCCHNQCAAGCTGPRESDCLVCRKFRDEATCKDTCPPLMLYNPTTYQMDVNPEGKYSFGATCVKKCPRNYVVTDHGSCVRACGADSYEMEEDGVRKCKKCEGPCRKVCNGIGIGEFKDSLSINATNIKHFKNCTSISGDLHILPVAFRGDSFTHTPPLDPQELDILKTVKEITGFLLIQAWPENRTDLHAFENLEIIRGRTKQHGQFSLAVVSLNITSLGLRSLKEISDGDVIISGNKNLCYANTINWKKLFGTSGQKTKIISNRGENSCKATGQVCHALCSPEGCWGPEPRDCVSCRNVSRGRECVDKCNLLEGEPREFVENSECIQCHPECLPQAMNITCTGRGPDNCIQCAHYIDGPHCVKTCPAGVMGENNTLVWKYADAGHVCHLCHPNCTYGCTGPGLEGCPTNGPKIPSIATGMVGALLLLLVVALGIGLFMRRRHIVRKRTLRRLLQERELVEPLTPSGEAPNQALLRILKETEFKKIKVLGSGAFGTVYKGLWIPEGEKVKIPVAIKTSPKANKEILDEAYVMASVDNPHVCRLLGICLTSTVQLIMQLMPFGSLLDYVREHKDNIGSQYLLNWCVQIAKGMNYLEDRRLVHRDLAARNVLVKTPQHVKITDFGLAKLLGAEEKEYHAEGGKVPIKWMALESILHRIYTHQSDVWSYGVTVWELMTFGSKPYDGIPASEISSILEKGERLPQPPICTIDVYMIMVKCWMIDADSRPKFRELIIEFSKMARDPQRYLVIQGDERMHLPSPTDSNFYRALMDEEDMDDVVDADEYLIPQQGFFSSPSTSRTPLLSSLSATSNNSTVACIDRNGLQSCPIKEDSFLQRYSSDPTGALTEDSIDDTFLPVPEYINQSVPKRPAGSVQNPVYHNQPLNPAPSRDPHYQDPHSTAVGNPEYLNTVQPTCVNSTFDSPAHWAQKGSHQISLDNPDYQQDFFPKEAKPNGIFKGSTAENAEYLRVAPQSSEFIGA

| DC50 [1] | Dmax [1] | DC50 [2] | Dmax [2] | HL_ [3] | AUC(0-inf) [3] | AUC(0-t) [3] | Cmax [3] | MRT last [3] | Tmax [3] | IC50 (H1975) | IC50 (HCC827) | IC50 (PC-9) | Compound |
| --- | --- | --- | --- | --- | --- | --- | --- | --- | --- | --- | --- | --- | --- |
| 10 to 100 nM | 70 to 100% | 10 to 100 nM | 70 to 100% |  |  |  |  |  |  | < 10 nM | 10 to 100 nM | 10 to 100 nM | CCc1cc(Nc2ncc(Cl)c(Nc3ccccc3C(=O)NC)n2)c(OC)cc1N1CC2(CN(C(=O)CN3CCC(c4ccc(NC5CCC(=O)NC5=O)cc4)CC3)C2)C1 (centres unmarked) [Compound T-080] |
|  |  |  |  | 3.47 h | 2090 ng·h/mL | 2060 ng·h/mL | 227 ng/mL | 7.32 h | 5.33 h |  |  |  | COc1cc(N2CCN(C(=O)CN3CCC(c4ccc(NC5CCC(=O)NC5=O)cc4)CC3)CC2)ccc1Nc1ncc(Cl)c(Nc2ccccc2C(C)=O)n1 (centres unmarked) [Control Compound 1, reference compound] |
| 10 to 100 nM | 70 to 100% | 10 to 100 nM | 70 to 100% |  |  |  |  |  |  | 10 to 100 nM | 10 to 100 nM | 100 to 1000 nM | C=Cc1cc(Nc2ncc(Cl)c(Nc3ccccc3C(=O)NC)n2)c(OC)cc1N1CCN(C(=O)CN2CCC(c3ccc(NC4CCC(=O)NC4=O)cc3)CC2)CC1 (centres unmarked) [Compound T-003] |
| 10 to 100 nM | 70 to 100% | 10 to 100 nM | 70 to 100% |  |  |  |  |  |  |  |  |  | CCc1cc(Nc2ncc(Cl)c(Nc3ccccc3C(=O)NC)n2)c(OC)cc1N1CCN(C(=O)CN2CCC(c3c(F)cc(NC4CCC(=O)NC4=O)cc3F)CC2)CC1 (centres unmarked) [Compound T-068] |
|  |  |  |  |  |  |  |  |  |  | 10 to 100 nM | 100 to 1000 nM | 100 to 1000 nM | CNC(=O)c1ccccc1Nc1nc(Nc2ccc(N3CCN(C(=O)CN4CCC(c5ccc6c(N7CCC(=O)NC7=O)nn(C)c6c5)C(F)(F)C4)CC3)cc2OC)ncc1Cl (centres unmarked) [Compound T-047] |
|  |  |  |  |  |  |  |  |  |  | 100 to 1000 nM | 100 to 1000 nM | 100 to 1000 nM | CNC(=O)c1ccccc1Nc1nc(Nc2cc(C)c(N3CCN(C(=O)CC4(O)CCN(c5ccc6c(N7CCC(=O)NC7=O)nn(C)c6c5)CC4)CC3)cc2OC)ncc1Cl [Compound T-086] |
|  |  |  |  | 5.45 h | 10200 ng·h/mL | 8600 ng·h/mL | 714 ng/mL | 9.06 h | 6 h |  |  |  | CCc1cc(Nc2ncc(Cl)c(Nc3ccccc3C(=O)NC)n2)c(OC)cc1N1CCN(C(=O)CN2CCC(c3ccc(NC4CCC(=O)NC4=O)cc3)CC2)[C@@H](C)C1 (some centres unmarked) [Compound T-078] |
| 100 to 1000 nM | 70 to 100% |  |  |  |  |  |  |  |  | 10 to 100 nM | 100 to 1000 nM | 100 to 1000 nM | COc1cc(N2CCN(C(=O)CN3CCC(c4ccc(NC5CCC(=O)NC5=O)cc4)CC3)CC2)ccc1Nc1ncc(Cl)c(Nc2ccccc2-n2ccnn2)n1 (centres unmarked) [Compound T-007] |
|  |  |  |  | 4.02 h | 7990 ng·h/mL | 7720 ng·h/mL | 673 ng/mL | 4.67 h | 4.67 h | 10 to 100 nM | 100 to 1000 nM | 100 to 1000 nM | CCc1cc(Nc2ncc(Cl)c(Nc3ccccc3C(=O)NC)n2)c(OC)cc1N1CCN(C(=O)CN2CCC(c3ccc(NC4CCC(=O)NC4=O)cc3)CC2)[C@H](C)C1 (some centres unmarked) [Compound T-079] |
|  |  |  |  |  |  |  |  |  |  | < 10 nM | 10 to 100 nM | 100 to 1000 nM | CCc1cc(Nc2ncc(Cl)c(Nc3ccccc3C(=O)NC)n2)c(OC)cc1N1CCN(C(=O)CN2CCC(c3ccc4c(N5CCC(=O)NC5=O)nn(C)c4c3)CC2)CC1 [Compound T-043] |
| 10 to 100 nM | 70 to 100% | 100 to 1000 nM | 70 to 100% |  |  |  |  |  |  |  |  |  | CCc1cc(Nc2ncc(Cl)c(Nc3ccccc3C(=O)NC)n2)c(OC)cc1N1CCN(C(=O)CN2CCC(c3ccc(NC4CCC(=O)NC4=O)cc3C)CC2)CC1 (centres unmarked) [Compound T-090] |
|  |  |  |  |  |  |  |  |  |  | < 10 nM | 10 to 100 nM | 100 to 1000 nM | CNC(=O)c1ccccc1Nc1nc(Nc2cc(C)c(N3CCN(C(=O)CN4CCC(c5ccc6c(N7CCC(=O)NC7=O)nn(C)c6c5)C(F)(F)C4)CC3)cc2OC)ncc1Cl (centres unmarked) [Compound T-049] |
|  |  |  |  | 7.97 h | 20200 ng·h/mL | 16900 ng·h/mL | 1120 ng/mL | 9.66 h | 5.33 h |  |  |  | CCc1cc(Nc2ncc(Cl)c(Nc3ccccc3C(=O)NC)n2)c(OC)cc1N1CCN(C(=O)CN2CCC(c3ccc(NC4CCC(=O)NC4=O)cc3C(F)(F)F)CC2)CC1 (centres unmarked) [Compound T-074] |
| 100 to 1000 nM | 50 to 70% |  |  |  |  |  |  |  |  | 10 to 100 nM | 100 to 1000 nM | 100 to 1000 nM | COc1cc(N2CCN(C(=O)CN3CCC(c4ccc(NC5CCC(=O)NC5=O)cc4)CC3)CC2)ccc1Nc1ncc(Cl)c(Nc2ccccc2-c2ncc[nH]2)n1 (centres unmarked) [Compound T-011] |
|  |  |  |  |  |  |  |  |  |  | 100 to 1000 nM | 100 to 1000 nM | 100 to 1000 nM | CCc1cc(Nc2ncc(Cl)c(Nc3ccccc3C(=O)NC)n2)c(OC)cc1N1CCN(C(=O)CN2CCN(c3ccc4c(N5CCC(=O)NC5=O)nn(C)c4c3)CC2)CC1 [Compound T-045] |
| ≤ 10 nM | 70 to 100% | 10 to 100 nM | 70 to 100% | 3.09 h | 6730 ng·h/mL | 6690 ng·h/mL | 899 ng/mL | 6.27 h | 4 h |  |  |  | CCc1cc(Nc2ncc(Cl)c(Nc3ccccc3C(=O)NC)n2)c(OC)cc1N1CCN(C(=O)CN2CCC(c3ccc4c(N5CCC(=O)NC5=O)nn(C)c4c3)C(F)(F)C2)CC1 (centres unmarked) [Compound T-013] |

| Compound | DC50 [1] | Dmax [1] | DC50 [2] | Dmax [2] | HL_ [3] | AUC(0-inf) [3] | AUC(0-t) [3] | Cmax [3] | MRT last [3] | Tmax [3] | IC50 (H1975) | IC50 (HCC827) | IC50 (PC-9) |
| --- | --- | --- | --- | --- | --- | --- | --- | --- | --- | --- | --- | --- | --- |
| CCc1cc(Nc2ncc(Br)c(Nc3ccccc3C(=O)NC)n2)c(OC)cc1N1CCN(C(=O)CN2CCC(c3ccc4c(N5CCC(=O)NC5=O)nn(C)c4c3)C(F)(F)C2)CC1 (centres unmarked) [Compound T-014] | ≤ 10 nM | 70 to 100% | ≤ 10 nM | 70 to 100% | 3.37 h | 4560 ng·h/mL | 4510 ng·h/mL | 721 ng/mL | 5.88 h | 3.33 h |  |  |  |
| CCc1cc(Nc2ncc(Cl)c(Nc3ccccc3C(=O)NC)n2)c(OC)cc1N1CC2CCC(C1)N2C(=O)CN1CCC(c2ccc(NC3CCC(=O)NC3=O)cc2)CC1 (centres unmarked) [Compound T-109] | 10 to 100 nM | 50 to 70% | 10 to 100 nM | 50 to 70% |  |  |  |  |  |  | 10 to 100 nM | 10 to 100 nM | 10 to 100 nM |
